# Experimental data as given in PubChem BioAssay (NCI).
#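 Dose response: 5 concentrations. Exposure: 48 h. Format: 96-well plates. Endpoint: linear interpolation; highest concentration if not reached. TGI is the concentration that stops growth completely.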
# Key:
# Assay in all cases: NCI-60 cell line screen, 48 h
# SNB-19 CNS = tested on: SNB-19 CNS
# MCF7 breast = tested on: MCF7 breast
# U251 CNS = tested on: U251 CNS
# SK-MEL-28 melanoma = tested on: SK-MEL-28 melanoma
# MALME-3M melanoma = tested on: MALME-3M melanoma
# HL-60(TB) leukemia = tested on: HL-60(TB) leukemia
# HCC-2998 colon = tested on: HCC-2998 colon
# A549 NSCLC = tested on: A549 NSCLC
# HCT-15 colon = tested on: HCT-15 colon
# K-562 leukemia = tested on: K-562 leukemia
# DU-145 prostate = tested on: DU-145 prostate
# NCI-H23 lung = tested on: NCI-H23 lung
# SF-295 CNS = tested on: SF-295 CNS
# HCT-116 colon = tested on: HCT-116 colon
# UO-31 renal = tested on: UO-31 renal
# MDA-MB-231 breast = tested on: MDA-MB-231 breast
# T-47D breast = tested on: T-47D breast
# NCI-H460 lung = tested on: NCI-H460 lung
# UACC-257 melanoma = tested on: UACC-257 melanoma
# OVCAR-5 ovarian = tested on: OVCAR-5 ovarian
# MDA-N = tested on: MDA-N
# HOP-92 NSCLC = tested on: HOP-92 NSCLC
# UACC-62 melanoma = tested on: UACC-62 melanoma
# OVCAR-8 ovarian = tested on: OVCAR-8 ovarian
# HT29 colon = tested on: HT29 colon
# NCI-H522 lung = tested on: NCI-H522 lung
# 786-0 renal = tested on: 786-0 renal
# KM12 colon = tested on: KM12 colon
# OVCAR-4 ovarian = tested on: OVCAR-4 ovarian
# SNB-75 CNS = tested on: SNB-75 CNS
# SN12C renal = tested on: SN12C renal
# RPMI-8226 leukemia = tested on: RPMI-8226 leukemia
# MDA-MB-435 = tested on: MDA-MB-435
# NCI/ADR-RES ovarian = tested on: NCI/ADR-RES ovarian
# CCRF-CEM leukemia = tested on: CCRF-CEM leukemia
# MOLT-4 leukemia = tested on: MOLT-4 leukemia
# BT-549 breast = tested on: BT-549 breast
# CAKI-1 renal = tested on: CAKI-1 renal
# SK-MEL-2 melanoma = tested on: SK-MEL-2 melanoma
# SK-OV-3 ovarian = tested on: SK-OV-3 ovarian
# A498 renal = tested on: A498 renal
# COLO 205 colon = tested on: COLO 205 colon
# NCI-H226 lung = tested on: NCI-H226 lung
# HOP-62 NSCLC = tested on: HOP-62 NSCLC
# SF-268 CNS = tested on: SF-268 CNS
# SW-620 colon = tested on: SW-620 colon
# EKVX NSCLC = tested on: EKVX NSCLC
# RXF 393 renal = tested on: RXF 393 renal
# SR leukemia = tested on: SR leukemia
# M14 melanoma = tested on: M14 melanoma
# ACHN renal = tested on: ACHN renal
# SF-539 CNS = tested on: SF-539 CNS
# OVCAR-3 ovarian = tested on: OVCAR-3 ovarian
# PC-3 prostate = tested on: PC-3 prostate
smiles,measurement,setting,value
O=c1[nH]nc(Cc2ccc(Cl)cc2)n1/N=C/c1ccco1,TGI,SNB-19 CNS,78.4 µM
same,TGI,MCF7 breast,> 100 µM
same,TGI,U251 CNS,> 100 µM
same,TGI,SK-MEL-28 melanoma,> 100 µM
same,TGI,MALME-3M melanoma,> 100 µM
same,TGI,HL-60(TB) leukemia,> 100 µM
same,TGI,HCC-2998 colon,> 100 µM
same,TGI,A549 NSCLC,> 100 µM
same,TGI,HCT-15 colon,> 100 µM
same,TGI,K-562 leukemia,> 100 µM
same,TGI,DU-145 prostate,> 100 µM
same,TGI,NCI-H23 lung,> 100 µM
same,TGI,SF-295 CNS,> 100 µM
same,TGI,HCT-116 colon,> 100 µM
same,TGI,UO-31 renal,> 100 µM
same,TGI,MDA-MB-231 breast,> 100 µM
same,TGI,T-47D breast,> 100 µM
same,TGI,NCI-H460 lung,> 100 µM
same,TGI,UACC-257 melanoma,> 100 µM
same,TGI,OVCAR-5 ovarian,> 100 µM
same,TGI,MDA-N,> 100 µM
same,TGI,HOP-92 NSCLC,> 100 µM
same,TGI,UACC-62 melanoma,> 100 µM
same,TGI,OVCAR-8 ovarian,> 100 µM
same,TGI,HT29 colon,> 100 µM
same,TGI,NCI-H522 lung,> 100 µM
same,TGI,786-0 renal,> 100 µM
same,TGI,KM12 colon,> 100 µM
same,TGI,OVCAR-4 ovarian,> 100 µM
same,TGI,SNB-75 CNS,49.7 µM
same,TGI,SN12C renal,> 100 µM
same,TGI,RPMI-8226 leukemia,> 100 µM
same,TGI,MDA-MB-435,> 100 µM
same,TGI,NCI/ADR-RES ovarian,> 100 µM
same,TGI,CCRF-CEM leukemia,> 100 µM
same,TGI,MOLT-4 leukemia,> 100 µM
same,TGI,BT-549 breast,> 100 µM
same,TGI,CAKI-1 renal,> 100 µM
same,TGI,SK-MEL-2 melanoma,> 100 µM
same,TGI,SK-OV-3 ovarian,> 100 µM
same,TGI,A498 renal,> 100 µM
same,TGI,COLO 205 colon,> 100 µM
same,TGI,NCI-H226 lung,> 100 µM
same,TGI,HOP-62 NSCLC,> 100 µM
same,TGI,SF-268 CNS,> 100 µM
same,TGI,SW-620 colon,> 100 µM
same,TGI,EKVX NSCLC,> 100 µM
same,TGI,RXF 393 renal,91.7 µM
same,TGI,SR leukemia,> 100 µM
same,TGI,M14 melanoma,> 100 µM
same,TGI,ACHN renal,> 100 µM
same,TGI,SF-539 CNS,90.5 µM
same,TGI,OVCAR-3 ovarian,> 100 µM
same,TGI,PC-3 prostate,> 100 µM
